“Also recorded” adds a separate entry of the source.

Data set [1] relates to diabetes-induced Sprague-Dawley rats. Nature of the data set: Blood glucose lowering effect in streptozotocin diabetes-induced rats, oral. Type of data set: in vivo. The following applies: STZ (45 mg/kg) diabetic male Sprague-Dawley rats, 50 mg/kg oral in 30% ethanol, smallest blood glucose of 90, 120 and 180 min; for inhibition in vivo at 50 mg/kg: Rattus norvegicus, read-out: Blood glucose lowering rate. On the procedure: Two groups of male diabetes-induced Sprague-Dawley rats (each of 4-5 rats weighing about 250 g per group) were used for this experiment. 45 mg/kg of streptozotocin (STZ) dissolved in 0.1M citrate buffer (pH 4.5, 0-4° C.) was injected to the tail vein of fasted rats for 1 day. After elapse of 7 days, their blood glucose concentration were measured and animals having the blood serum concentration of more than 350 mg/dl were used as diabetes-induced rats for this experiment. The rats were intravenously administered at a daily dose of 1 ml/kg, while the normal control group received equal volume of 0.1M citrate buffer.
7 days after being treated with streptozotocin, diabetes-induced rats were orally administered at a dose of 50 mg/kg of the compounds prepared by the procedures of Examples 1-13. Then, at time intervals of 90 mins, 120 mins and 180 mins, their blood glucose concentrations were measured and the smallest values were taken. The compounds of Example 1-13 were dissolved in 30% ethanol until its final concentration became 2 ml/kg, while the control group was orally received equal volume of 30% ethanol.
Significant difference between two groups was determined by ANOVA test, together with a post hoc test using Newman-Keuls test.

A short description of data set [2]: Acute oral toxicity test in rats. The following applies: rat, in vivo, mature rats 200-250 g, dissolved in ethylacetate. On the procedure:
The acute toxicity tests on rats were performed using the compound prepared by the procedure of the Example 1. Mature rats weighing 200-250 g were orally given the compound of the Example 1 dissolved in ethylacetate in parallel with its gradually increasing concentration. Then, LD50 was calculated by number of killed animals.

For data set [3] the following is noted: phase II clinical trials, discontinued; cited from earlier work.

As for `CCOC(=O)C(O)(CO)CCCCCCOCc1ccc(C)o1` (stereo not drawn) [Example 5, Ethyl-2,3-dihydroxy-2-[6-(5-methyl-2-furanmethoxy)hexyl]propionate], the inhibition in vivo at 50 mg/kg in data set [1] worked out at 22%. Still for that read-out and setting: in the case of `CCOC(=O)C(O)(CCCCCCOCc1ccccc1)COS(=O)(=O)c1ccc(C)cc1` (stereo not drawn) [Example 10, Ethyl 2-hydroxy-3-(4-methylbenzenesulfoxy)-2-[6-benzoxyhexyl]propionate] it was 34.1%. In the case of `CCOC(=O)C(O)(CO)CCCCCCOCc1ccc(OC)cc1` (stereo not drawn) [Example 2, Ethyl-2,3-dihydroxy-2-[6-(4-methoxybenzoxy)hexyl]propionate], in data set [1], the inhibition in vivo at 50 mg/kg is 10%. The same measure, in the same setting: with `CCOC(=O)C(O)(CO)CCCCCCOc1ccc(Cl)cc1` (stereo not drawn) [Example 3, Ethyl-2,3-dihydroxy-2-[6-(4-chlorophenoxy)hexyl]propionate] the figure was 23%.

For the compound `CCOC(=O)C(O)(CO)CCCCCCOCc1ccccc1` (stereo not drawn) [Example 1, Ethyl-2,3-dihydroxy-2-(6-benzoxy)hexylpropionate], the inhibition in vivo at 50 mg/kg in data set [1] worked out at 38.5%. Also, in data set [2], the LD50 – broadly, the dose expected to kill half of the subjects tested – came to 482 mg/kg. Turning to `CCOC(=O)C(O)(CBr)CCCCCCOCc1ccc(Cl)s1` (stereo not drawn) [Example 12, Ethyl 2-hydroxy-3-bromo-2-[6-(5-chlorothiophenemethoxy)hexyl]propionate], the inhibition in vivo at 50 mg/kg in data set [1] is 26.4%.

Consider `CCOC(=O)C(O)(CO)CCCCCCOCCc1cccs1` (stereo not drawn) [Example 6, Ethyl-2,3-dihydroxy-2-[6-(2-thiophenethoxy)hexyl]propionate], for which the inhibition in vivo at 50 mg/kg in data set [1] came to 1.2%. The same measure, in the same setting: in the case of `CCOC(=O)C(O)(CO)CCCCCCOCc1ccc(Cl)s1` (stereo not drawn) [Example 7, Ethyl-2,3-dihydroxy-2-[6-(5-chloro-2-thiophenmethoxy)hexyl]propionate] it was 19.2%.

For `CCOC(=O)[C@@]1(CCCCCCOc2ccc(Cl)cc2)CO1` [etomoxir], the “side effects associated with prolonged administration” value in data set [3] is reported as “enlarged heart; also recorded: toxicity in the liver”. For the compound `CCOC(=O)C(O)(CBr)CCCCCCOc1ccc(Cl)cc1` (stereo not drawn) [Example 9], in data set [1], the inhibition in vivo at 50 mg/kg was 22%. Still for that read-out and setting: in the case of `CCOC(=O)C(O)(CO)CCCCCCOCc1sccc1Cl` (stereo not drawn) [Example 8, Ethyl-2,3-dihydroxy-2-[6-(3-chloro-2-thiophenmethoxy)hexyl]propionate] it was 26%; in that of `CCOC(=O)C(O)(CBr)CCCCCCOCCc1cccs1` (stereo not drawn) [Example 11, Ethyl 2-hydroxy-3-bromo-2-[6-(2-thiophenethoxy)hexyl]propionate], 13%. Consider `CCOC(=O)C(O)(CO)CCCCCCn1nc(C)cc1C` (stereo not drawn) [Example 4, Ethyl-2,3-dihydroxy-2-[6-(3,5-dimethylpyrazol)hexyl]propionate], for which, in data set [1], the “Blood glucose lowering rate” value is given as 19.8%. For `CCOC(=O)C(O)(CBr)CCCCCCOCc1sccc1Cl` (stereo not drawn) [Example 13, Ethyl 2-hydroxy-3-bromo-2-[6-(3-chlorothiophenemethoxy)hexyl]propionate], the inhibition in vivo at 50 mg/kg in data set [1] was found to be 19.3%.

Source of the values: patent publication US6030993A, “2-hydroxypropionic acid derivative and its manufacturing method” (Sang Sup JEW, priority 1996, dated 2000).
